Oligonucleotides are written 5' to 3', each unit as a sugar letter and its base; * is a phosphorothioate linkage, no mark a phosphodiester; rarer units and linkages stand in square brackets, end groups in braces. Plain capitals give the bases only. k = constrained ethyl (cEt); [5mC] = 5-methylcytosine; d = 2'-deoxy (DNA)
Assays:
AR mRNA [1] = assay: AR mRNA in liver, heart, skeletal muscle, kidney, prostate of cynomolgus monkeys; type: in vivo; settings: cynomolgus monkey, 40 mg/kg subcutaneously; for Percent Inhibition of AR mRNA relative to the PBS control, Heart: weeks 1 to 6, Heart; for Percent Inhibition of AR mRNA relative to the PBS control, Kidney: weeks 1 to 6, Kidney; for Percent Inhibition of AR mRNA relative to the PBS control, Liver: weeks 1 to 6, Liver; for Percent Inhibition of AR mRNA relative to the PBS control, Prostate: weeks 1 to 6, Prostate; for Percent Inhibition of AR mRNA relative to the PBS control, Skeletal Muscle: weeks 1 to 6, Skeletal Muscle
Method: Cynomolgus monkeys were treated with ISIS antisense oligonucleotides selected from studies described above. Antisense oligonucleotide efficacy and tolerability were evaluated. The human antisense oligonucleotides tested are cross-reactive with the rhesus genomic sequence (GENBANK Accession No. NW_001218131.1 truncated from nucleotides 134001 to 308000 and designated herein as SEQ ID NO: 189). The target start site and target region of each oligonucleotide to SEQ ID NO: 189, as well as the details of their chemistry and sequence, is presented in Table 133.
RNA was extracted from liver, heart, skeletal muscle, kidney, and prostate tissues for real-time PCR analysis of AR using primer probe set RTS3559. The results were normalized to RIBOGREEN®. Results are presented as percent inhibition of AR mRNA, relative to PBS control.

AR mRNA [2] = assay: AR mRNA in LnCaP cells by free uptake (hAR_LTS00943); type: cell-based, human; settings: 24 hrs
Method: Cells were plated at a concentration of 4,000 cells/well in 96-well plates. ISIS oligonucleotides, specified in Table 68, were added individually at 0.02 μM, 0.10 μM, 0.50 μM, 2.50 μM, or 10.00 μM. After an incubation period of 24 hrs, mRNA levels were measured using primer probe set hAR_LTS00943.

AR mRNA [3] = assay: Antisense inhibition of human AR in HuVEC cells, single concentration (electroporation, qRT-PCR RTS3559); type: cell-based; settings: electroporation, approximately 24 hours, relative to untreated control
Outline: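 AR mRNA levels were measured with human primer-probe set RTS3559 and adjusted for total RNA (RIBOGREEN). Cells were HuVEC, with each antisense oligonucleotide delivered by electroporation at one concentration.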

AR mRNA [4] = assay: Dose-dependent antisense inhibition of human AR in HuVEC cells (electroporation, qRT-PCR RTS3559, IC50); type: cell-based; settings: HuVEC, electroporation, approximately 16 hours
Outline: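 HuVEC cells dosed with antisense oligonucleotides by electroporation and treated approximately 16 hours. AR mRNA quantified by real-time qPCR with primer probe set RTS3559 and normalised to total RNA by RIBOGREEN; IC50 from dose-response.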

Row | Substance | Percent Inhibition of AR mRNA relative to the PBS control, Heart (AR mRNA [1]) | Percent Inhibition of AR mRNA relative to the PBS control, Kidney (AR mRNA [1]) | Percent Inhibition of AR mRNA relative to the PBS control, Liver (AR mRNA [1]) | Percent Inhibition of AR mRNA relative to the PBS control, Prostate (AR mRNA [1]) | Percent Inhibition of AR mRNA relative to the PBS control, Skeletal Muscle (AR mRNA [1]) | Percent inhibition of AR mRNA (AR mRNA [2]; 0.02 μM) | Percent inhibition of AR mRNA (AR mRNA [2]; 0.1 μM) | Percent inhibition of AR mRNA (AR mRNA [2]; 0.5 μM) | Percent inhibition of AR mRNA (AR mRNA [2]; 10 μM) | also measured
1 | 584468 (k[5mC]*kA*kT*dT*dG*dT*dA*d[5mC]*dT*dA*dT*dG*d[5mC]*k[5mC]*kA*kG) [compound 584468] | 33% | 88% | 97% | 50% | 53% | 0% | 0% | 10% | 73% | % inhibition (AR mRNA [3]; Table 27, 1,000 nM oligonucleotide): 64%; percent inhibition of AR, 46.9 nM (AR mRNA [4]; Table 36): 9%; percent inhibition of AR, 187.5 nM (AR mRNA [4]; Table 36): 26%; percent inhibition of AR, 750.0 nM (AR mRNA [4]; Table 36): 60%; percent inhibition of AR, 3000.0 nM (AR mRNA [4]; Table 36): 90%; IC50 (AR mRNA [4]; Table 36): 370 nM
2 | 583918 (kA*kG*kT*d[5mC]*dG*d[5mC]*dG*dA*d[5mC]*dT*d[5mC]*dT*dG*kG*kT*kA) [compound 583918] | 76% | 73% | 88% | 58% | 74% | 8% | 0% | 0% | 13% | % inhibition (AR mRNA [3]; Table 21, 500 nM oligonucleotide): 47%; percent inhibition of AR, 46.9 nM (AR mRNA [4]; Table 33): 16%; percent inhibition of AR, 187.5 nM (AR mRNA [4]; Table 33): 47%; percent inhibition of AR, 750.0 nM (AR mRNA [4]; Table 33): 68%; percent inhibition of AR, 3000.0 nM (AR mRNA [4]; Table 33): 86%; IC50 (AR mRNA [4]; Table 33): 300 nM
